Measurements: patent US20220096538A1, “PHARMACEUTICAL COMPOSITIONS AND METHODS FOR PREVENTION AND/OR TREATMENT OF INFLAMMATION” (priority 2020, published 2022)
Several values for one entry are separate records, joined by “and”; a condition that tells them apart may be missing. Equal entries are not always repeated.

Legend:
[1] = cited from earlier work; for Approximate Equivalent Dose: equivalent to 0.75 mg dexamethasone
[2] = system: LPS-GalN challenged mice; assay: LPS-GalN model of fatal cytokine storm and sepsis, treatment 2 h post LPS-GalN: 24 h survival
[3] = system: LPS-GalN induced liver injury; assay: LPS-GalN model, treatment 2 h post LPS-GalN: liver histopathological score
[4] = system: LPS-GalN induced acute lung injury; assay: LPS-GalN model, treatment 2 h post LPS-GalN: lung histopathological (ALI) score; conditions: for Mean±SE ALI score: scale 0 to 4
[5] = DEX 0.1 mg/kg i.p. 2 h post LPS-GalN, n=6
[6] = DEX 0.6 mg/kg i.p. 2 h post LPS-GalN, n=6
[7] = DEX 6.0 mg/kg i.p. 2 h post LPS-GalN, n=6
[8] = RJX 0.7 ml/kg, DEX 0.6 mg/kg, alone or combined, 2 h post LPS-GalN
[9] = low dose RJX, standard dose DEX, alone or combined, 2 h post LPS-GalN

Compound: C[C@]12CCC(=O)C=C1CC[C@@H]1[C@@H]2C(=O)C[C@@]2(C)[C@H]1CC[C@]2(O)C(=O)CO [Cortisone]
- Approximate Equivalent Dose [1]: 25 mg

Compound: C[C@@H]1C[C@H]2[C@@H]3CCC4=CC(=O)C=C[C@]4(C)[C@@]3(F)[C@@H](O)C[C@]2(C)[C@@]1(O)C(=O)CO [DEX, dexamethasone]
- Censored [2, 5]: 1
- Events [2, 5]: 5
- Median (survival) [2, 5]: 5.1 h
- Proportion (events; 24-h mortality) [2, 5]: 83.3%
- Censored [2, 6]: 3
- Events [2, 6]: 3
- Median (survival) [2, 6]: 15.0 h
- Proportion (events; mortality) [2, 6]: 50.0%
- Censored [2, 7]: 4
- Events [2, 7]: 2
- Proportion (events; mortality) [2, 7]: 33.3%
- Censored ([2]; RJX 0.7 ml/kg (6-fold diluted 4.2 mL/kg), DEX 0.6 mg/kg, alone or combined, 2 h post LPS-GalN): 5
- Events [2, 8]: 5
- Median (survival) [2, 8]: 17.6 h
- Proportion (events) [2, 8]: 50.0%
- histopathological liver damage score (Mean±SE) ([3]; DEX 0.1 mg/kg): 3.3±0.2
- histopathological liver damage score (Mean±SE) ([3]; DEX 0.6 mg/kg): 2.7±0.2
- liver score median ([3]; DEX 0.6 mg/kg): 3
- histopathological liver damage score (Mean±SE) ([3]; DEX 6.0 mg/kg): 2.3±0.2
- liver score median ([3]; DEX 6.0 mg/kg): 3
- liver histopathological scores, range ([3]; DEX (0.1)): 3-4
- Liver Histopathological Score: ≥3 (severe damage or more), percent of mice [3, 9]: 50%
- lung histopathological ALI score, Median ([4]; DEX 0.1 mg/kg): 3.5
- lung histopathological ALI scores, range ([4]; DEX 0.1 mg/kg): 3-4
- Mean±SE ALI score ([4]; DEX 0.1 mg/kg): 3.5±0.2
- lung histopathological ALI score, Median ([4]; DEX 0.6 mg/kg): 3
- lung histopathological ALI scores, range ([4]; DEX 0.6 mg/kg): 2-4
- Mean±SE ALI score ([4]; DEX 0.6 mg/kg): 2.8±0.3
- lung histopathological ALI score, Median ([4]; DEX 6.0 mg/kg): 2
- lung histopathological ALI scores, range ([4]; DEX 6.0 mg/kg): 1-3
- Mean±SE ALI score ([4]; DEX 6.0 mg/kg): 1.8±0.3
- Lung Histopathological Score: ≥3 (severe damage or more), percent of mice [4, 9]: 50%
- ALI score of a representative mouse ([4]; single dose at 2 hours post-LPS-GalN, sacrificed at 24 hours, low dose RJX, high dose DEX or both): 2

Compound: C[C@]12CCC(=O)C=C1CC[C@H]1[C@@H]3CC[C@](O)(C(=O)CO)[C@@]3(C)C[C@H](O)[C@@]12F [Fludrocortisone]
- Anticipated Half-life [1]: 12 to 26 h and 12 to 36 h

Compound: C[C@]12CCC(=O)C=C1CC[C@@H]1[C@@H]2[C@@H](O)C[C@@]2(C)[C@H]1CC[C@]2(O)C(=O)CO [Hydrocortisone]
- Approximate Equivalent Dose [1]: 20 mg

Compound: C[C@]12C=CC(=O)C=C1CC[C@@H]1[C@@H]2[C@@H](O)C[C@@]2(C)[C@H]1CC[C@]2(O)C(=O)CO [Prednisolone]
- Approximate Equivalent Dose [1]: 5 mg

Compound: C[C@]12C=CC(=O)C=C1CC[C@H]1[C@@H]3C[C@@H](O)[C@](O)(C(=O)CO)[C@@]3(C)C[C@H](O)[C@@]12F [Triamcinolone]
- Approximate Equivalent Dose [1]: 4 mg
